Test [1] deals with β-catenin and PKG in SW480 cells. Kind of test: Western blot of β-catenin and PKG in SW480 cells. It is filed as cell-based, human. How it is done:
SW480 cells treated with exisulind as described previously are harvested from the microfuge tubes by rinsing once with ice-cold PBS. The cells are lysed by modified RIPA buffer for 15 minutes with agitation. The cell lysate is spun down in a cold room. The supernatants are transferred to fresh microcentrifuge tubes immediately after spinning. BioRad DC Protein Assay (Temecula, CA) is performed to determine the protein concentrations in samples. The samples are normalized for protein concentration, as described above.
50 μg of each sample is loaded to 10% SDS gel. SDS-PAGE is performed, and the proteins then are transferred to a nitrocellulose membrane. The blotted nitrocellulose membrane are blocked in freshly prepared TBST containing 5% nonfat dry milk for one hour at room temperature with constant agitation.
A goat-anti-PKG primary antibody is diluted to the recommended concentration/dilution in fresh TBST/5% nonfat dry milk. The nitrocellulose membrane is placed in the primary antibody solution and incubated one hour at room temperature with agitation. The nitrocellulose membrane is washed three times for ten minutes each with TBST. […]
This observation was made by culturing SW480 cells with either 200, 400 or 600 μM exisulind or vehicle (0.1% DMSO). […] Immuno-reactive protein can be detected by Western blot. […]
A general note: Immunoblotting shows a protein as a band on a membrane.

For test [2], the target named is T1, cGMP binding sites of GST-cGB-PDE5 fusion protein (Homo sapiens, UniProt O76074).
T1 construct: made in house; host or cells: E. coli BL21 (DE3)
Kind of test: cGMP binding assay with GST-cGB-PDE5 fusion protein. As to conditions: FIG. 24.

The subject of another test is polyps in APC patients. Kind of test: Clinical prevention trial in patients with adenomatous polyposis coli (APC). It is filed as in vivo, human. An excerpt: The first clinical trial involved patients with APC. using exisulind. In that study, each patient had already had his/her colon removed, except for a small section of colon adjacent the rectum (where the small intestine was attached) to preserve rectal function. However, such a patient commonly forms polyps in the small remaining colonic section, which polyps require periodic removal (e.g., by electrocautery).
That trial where exisulind was selected was a prevention trial designed to evaluate the anti-neoplastic characteristics of the drug by comparing the cumulative number of new polyps formed over twelve months by the drug and placebo groups. Eligible patients were those who form between 9 and 44 polyps per year. Patients were fully ablated (had all polyps removed) at the start of the study, at the end of 6 months and at the end of 12 months. The study enrolled thirty-four eligible patients. […] Based on the median number of polyps produced in the first six months of the study, patients treated with exisulind developed approximately one-third the number of polyps as patients treated with placebo (median values 9 polyps/year and 26 polyps/year, respectively; p=0.013). […]

The test system of test [3] is PKG in SW480 colon cancer cells. Kind of test: PKG activity assay on lysates of drug-treated SW480 cells. It is filed as cell-based, human. The following applies: SW480, 48 hrs, with and without added cGMP. An excerpt:
That sequence is known and described in the literature below. […] One way to bind the PDE5 sequences to a solid phase is to express those sequences as a fusion protein of the PDE5 sequence and one member of an amino acid binding pair, and chemically link the other member of that amino acid binding pair to a solid phase (e.g., beads). One binding pair that can be used is glutathione S-transferase (“GST”) and glutathione (“GSH”), with the GST being expressed as a fusion protein with the PDE5 sequence described above, and the GSH bound covalently to the solid phase. In this fashion, the PDE5 sequence/GST fusion protein can be bound to a solid phase simply by passing a solution containing the fusion protein over the solid phase, as described below.
To assay a liquid sample believed to contain PKG using the PDE5-bound solid phase described above, the sample and the solid phase are mixed with phosphorylation buffer containing ^32P-γ-ATP. The solution is incubated for 30 minutes at 30° C. to allow for phosphorylation of the PDE5 sequence by PKG to occur, if PKG is present. […]
For each control or drug cell lysate sample to be evaluated, the reaction is started by adding phosphorylation buffer containing 10 μCi ^32P-γ-ATP solution (200 μM ATP, 4.5 mM MgCl; 5 mM KH2PO4; 5 mM K2HPO4;) to each mixture. […]

T1 sequence (O76074 46-539 limits assumed): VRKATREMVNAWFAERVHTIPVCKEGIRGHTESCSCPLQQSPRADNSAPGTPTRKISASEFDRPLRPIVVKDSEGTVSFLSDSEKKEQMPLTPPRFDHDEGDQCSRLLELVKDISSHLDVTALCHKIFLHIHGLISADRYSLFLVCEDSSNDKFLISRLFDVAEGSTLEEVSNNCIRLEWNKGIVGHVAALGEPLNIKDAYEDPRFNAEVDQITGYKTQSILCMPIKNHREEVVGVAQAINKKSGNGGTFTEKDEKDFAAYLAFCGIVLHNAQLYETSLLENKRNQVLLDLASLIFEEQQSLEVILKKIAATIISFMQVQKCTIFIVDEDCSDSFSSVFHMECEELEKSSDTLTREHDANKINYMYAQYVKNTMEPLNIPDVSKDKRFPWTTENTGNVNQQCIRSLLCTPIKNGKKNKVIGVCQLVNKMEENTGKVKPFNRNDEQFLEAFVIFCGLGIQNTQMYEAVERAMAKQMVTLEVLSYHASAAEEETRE

Turning to `CC1=C(CC(=O)O)c2cc(F)ccc2/C1=C\c1ccc(S(C)(=O)=O)cc1` [Exisulind, 5-fluoro-2-methyl-1-(p-methylsulfonylbenzylidene)-3-indenylacetic acid], the “reduction of β-catenin expression compared to control” value in test [1] (SW480, 200, 400 or 600 μM, 48 hours, Western blot) stood at 50%. The “PKG level by Western blot” value in test [1] (SW480, 48 hours) is “increase of PKG”. Further, the “competition with cGMP (2 μM) in binding of GST-cGB-PDE5” value in test [2] is “None of the PDE5 inhibitors showed any competition”. Further, the “median number of polyps, entire 12 months” value in the test on polyps in APC patients (entire 12 months of the study) came to 18 polyps/year. In the test with polyps in APC patients (first six months of the study), the “median number of polyps, first six months” value is reported as 9 polyps/year. In addition, the “PKG activity relative to control” value in test [3] is on record as “causes PKG activity to increase in a dose-dependent manner”.
